The values that follow come from patent US9399123B2, “Silicone adhesive compositions” (Momentive Performance Materials Inc., priority 2012, dated 2016).

The nature of this data set: DSC of drug crystals in adhesive (heat of melting, solid drug fraction). The class given is physicochemical. The protocol:
To further study the interaction, the drug containing samples were analyzed via DSC using a TA Instruments Differential Scanning Calorimeter. The ionic silicone and PDMS-based samples containing ibuprofen, as well as pure drug were heated from room temperature to 200° C. at a rate of 5° C./min. The drug melting point, Tm was identified at 77° C. […] This evidence of differential interactions could explain the difference in ibuprofen release through these systems (FIGS. 5(b) and (c)).
The difference in drug compatibility with the ionic silicone adhesive vis-á-vis the PDMS adhesive was determined via DSC as described in Example 12 above. The free drug, and drug loaded PDMS and ionic silicone adhesive were subjected to a heating and cooling cycle under air atmosphere. The DSC thermograms are show in FIG. 9(b).
To quantify the result and the difference in compatibility, the areas were calculated as normalized heat of melting of drug crystals present in the formulation. The values were attributed to the solid fraction of distinct drug crystals present in the formulation, and the following results were obtained: […]

For the compound `C[C@]12CC[C@H]3[C@@H](CCC4=CC(=O)CC[C@@]43C)[C@@H]1CC[C@@H]2O` [Testosterone], the “Heat of Melting” value (DSC, normalized heat of melting of drug crystals) was 73 J/gm. Moreover, the “% Solid drug fraction” value (from heat of melting relative to free testosterone (100% assigned)) was found to be 100%.
